21 compounds from US20240309005A1 (priority 2021, published 2024) can be followed below.

Converted amounts (≈) assume the structure as drawn. Where a name gives a salt, the structure may show the parent alone.

Series [1] is described as follows: in vivo. The note with it: male, CD1, mouse; for Cmax / bioavailability: po, 30 mg/kg.
A short description of the next series: physchem. The conditions noted are these: 25 °C, kinetic from dmso stock.
A short description of series [2]: in vivo. The conditions noted are these: male, SD, rat; for bioavailability / Cmax: po, 30 mg/kg; for Cmax: Cmax (ng/ml).

What is called half-life is the time in which the quantity being followed falls by half. Read a low half-life as fast loss. The term Cmax denotes the highest concentration seen after dosing. For orientation: bioavailability means dose-corrected exposure relative to a reference, in per cent. Low values mean little systemic uptake, high ones much systemic uptake. In “in vivo [1]”, `Cc1n[nH]c2nc(-c3ccc(NS(=O)(=O)c4cc(Cl)ccc4F)cc3)nc(NCCN(C)CCOC(=O)CC(C)C)c12` [Compound 83, 2-{[2-({6-[4-(5-chloro-2-fluorobenzenesulfonamido)phenyl]-3-methyl-1H-pyrazolo[3,4-d]pyrimidin-4-yl}amino)ethyl](methyl)amino}ethyl 3-methylbutanoate] showed a half-life of 2.4 h, a Cmax of 788 ng/mL and a bioavailability of 4.9%.
As for `CCC(=O)OCCN(C)CCNc1nc(-c2ccc(NS(=O)(=O)c3cc(Cl)ccc3F)cc2)nc2[nH]nc(C)c12` [Compound 90, 2-{[2-({6-[4-(5-chloro-2-fluorobenzenesulfonamido)phenyl]-3-methyl-1H-pyrazolo[3,4-d]pyrimidin-4-yl}amino)ethyl](methyl)amino}ethyl propanoate; bis(trifluoroacetic acid)], in the series “in vivo [1]”, the half-life was 2.4 h, the maximum concentration (Cmax) amounted to 523 ng/mL and the bioavailability turned out to be 5.5%.
What is called solubility is how much of the substance goes into solution per volume. Read a high solubility as a readily soluble substance. In turn, `Cc1n[nH]c2nc(-c3ccc(NS(=O)(=O)c4cc(Cl)ccc4F)cc3)nc(NCCN(C)C=O)c12` [Compound 18, N-[2-([6-[4-(5-chloro-2-fluorobenzenesulfonamide)phenyl]-3-methyl-1H-pyrazolo[3,4-d]pyrimidin-4-yl]amino)ethyl]-N-methylformamide] displayed a maximum concentration (Cmax) in the series “in vivo [1]” of 2.3 ng/mL. This compound also had a bioavailability in the series “in vivo [1]” of 0.5%. Moreover, the solubility at 2 h in the series “physchem” (pH 5, fessif) stood at 268 µM (≈ 139 µg/mL); in the series “physchem” (pH 7.4, aqueous buffer) it was 52 µM (≈ 26.9 µg/mL).
In “in vivo [1]”, `Cc1n[nH]c2nc(-c3ccc(NS(=O)(=O)c4cc(Cl)ccc4F)cc3)nc(NCCN(C)CCOC(=O)C(C)(C)C)c12` [Compound 82, 2-{[2-({6-[4-(5-chloro-2-fluorobenzenesulfonamido)phenyl]-3-methyl-1H-pyrazolo[3,4-d]pyrimidin-4-yl}amino)ethyl](methyl)amino}ethyl 2,2-dimethylpropanoate] had a half-life of 1.7 h, a maximum concentration (Cmax) of 607 ng/mL and a bioavailability of 4.5%.
With `Cc1n[nH]c2nc(-c3ccc(NS(=O)(=O)c4cc(Cl)ccc4F)cc3)nc(O[C@@H]3CCN(CCO)C[C@@H]3F)c12` [Compound 50, 5-chloro-2-fluoro-N-[4-(4-{[(3S,4R)-3-fluoro-1-(2-hydroxyethyl)piperidin-4-yl]oxy}-3-methyl-1H-pyrazolo[3,4-d]pyrimidin-6-yl)phenyl]benzenesulfonamide], in “in vivo [1]”, the half-life was 3.2 h and the highest concentration (Cmax) amounted to 54.9 ng/mL.
Consider `COc1cc(-c2nc(NCCN(C)C)c3c(C)n[nH]c3n2)ccc1NS(=O)(=O)c1cc(F)ccc1F` [Compound 96, N-[4-(4-{[2-(dimethylamino)ethyl]amino}-3-methyl-1H-pyrazolo[3,4-d]pyrimidin-6-yl)-2-methoxyphenyl]-2,5-difluorobenzenesulfonamide], for which, in the series “in vivo [2]”, the half-life is 3.3 h, the bioavailability is 24% and the Cmax is 267 ng/mL.
For the compound `Cc1n[nH]c2nc(-c3ccc(NS(=O)(=O)c4cc(OC(C)C)ccn4)c(Cl)c3)nc(NCCN(C)C)c12` [Compound 100, N-[2-chloro-4-(4-{[2-(dimethylamino)ethyl]amino}-3-methyl-1H-pyrazolo[3,4-d]pyrimidin-6-yl)phenyl]-4-isopropoxypyridine-2-sulfonamide], in the series “in vivo [2]”, the half-life is 3.8 h, the bioavailability amounted to 39.5% and the highest level (Cmax) was 2480 ng/mL.
Take `Cc1n[nH]c2nc(-c3ccc(NS(=O)(=O)c4cc(C(F)(F)F)ccn4)cc3)nc(NCCN(C)C)c12` [Compound 30, N-(4-(4-((2-(dimethylamino)ethyl)amino)-3-methyl-1H-pyrazolo[3,4-d]pyrimidin-6-yl)phenyl)-4-(trifluoromethyl)pyridine-2-sulfonamide]: in the series “in vivo [1]”, the half-life was 4.4 h, the Cmax stood at 548 ng/mL and the bioavailability was 18.8%. In the series “physchem” (pH 5, fessif), this compound had a solubility at 2 h of 276 µM (≈ 144 µg/mL). Moreover, the concentration in solution in “physchem” (pH 7.4, aqueous buffer) (solubility at 2 h) was 295 µM (≈ 154 µg/mL).
As for `Cc1n[nH]c2nc(-c3ccc(NS(=O)(=O)c4cc(F)ccc4F)c(F)c3)nc(O[C@@H]3CCNC[C@@H]3F)c12` [Compound 155], in the series “in vivo [2]”, the half-life was 7.5 h, the bioavailability was 5.3% and the Cmax was 283 ng/mL.
Take `CC(=O)OCCN(C)CCNc1nc(-c2ccc(NS(=O)(=O)c3cc(Cl)ccc3F)cc2)nc2[nH]nc(C)c12` [Compound 87, 2-[[2-([6-[4-(5-chloro-2-fluorobenzenesulfonamido)phenyl]-3-methyl-1H-pyrazolo[3,4-d]pyrimidin-4-yl]amino)ethyl](methyl)amino]ethyl acetate]: in “in vivo [1]”, the half-life is 2 h, the Cmax turned out to be 1020 ng/mL and the bioavailability is 7.5%. In the series “physchem” (pH 5, fessif), this compound yielded a solubility at 2 h of 290 µM. Moreover, in the series “physchem” (pH 7.4, aqueous buffer), the solubility at 2 h worked out at 0.6 µM.
In the series “in vivo [2]”, `Cc1n[nH]c2nc(-c3ccc(NS(=O)(=O)c4cc(Cl)ccc4F)c(Cl)c3)nc(OC3CCN(C)CC3)c12` [Compound 101, 5-chloro-N-(2-chloro-4-{3-methyl-4-[(1-methylpiperidin-4-yl)oxy]-1H-pyrazolo[3,4-d]pyrimidin-6-yl}phenyl)-2-fluorobenzenesulfonamide] gave a half-life of 3.8 h, a bioavailability of 75% and a Cmax of 8120 ng/mL.
In the series “in vivo [1]”, `Cc1n[nH]c2nc(-c3ccc(NS(=O)(=O)c4cc(OC(C)C)ccn4)cc3)nc(NCCN(C)C)c12` [Compound 73, N-[4-(4-{[2-(dimethylamino)ethyl]amino}-3-methyl-1H-pyrazolo[3,4-d]pyrimidin-6-yl)phenyl]-4-isopropoxypyridine-2-sulfonamide] gave a half-life of 1.5 h and a Cmax of 143 ng/mL. Further, the solubility at 2 h in “physchem” (pH 5, fessif) stood at 311 µM (≈ 159 µg/mL). In the series “physchem” (pH 7.4, aqueous buffer), this compound came in with a solubility at 2 h of 265 µM (≈ 135 µg/mL).
In the series “in vivo [1]”, `Cc1n[nH]c2nc(-c3ccc(NS(=O)(=O)c4cc(Cl)ccc4F)cc3)nc(NCCN(C)CCOP(=O)(O)O)c12` [Compound 88, 2-{[2-({6-[4-(5-chloro-2-fluorobenzenesulfonamido)phenyl]-3-methyl-1H-pyrazolo[3,4-d]pyrimidin-4-yl}amino)ethyl](methyl)amino}ethoxyphosphonic acid] gave a half-life of 4.3 h, a Cmax of 14.5 ng/mL and a bioavailability of 1.6%.
In the series “in vivo [1]”, `CCCC(=O)OCCN(C)CCNc1nc(-c2ccc(NS(=O)(=O)c3cc(Cl)ccc3F)cc2)nc2[nH]nc(C)c12` [Compound 91, 2-{[2-({6-[4-(5-chloro-2-fluorobenzenesulfonamido)phenyl]-3-methyl-1H-pyrazolo[3,4-d]pyrimidin-4-yl}amino)ethyl](methyl)amino}ethyl butanoate trifluoroacetic acid] showed a half-life of 4.5 h, a maximum concentration (Cmax) of 319 ng/mL and a bioavailability of 2.2%.
With `Cc1n[nH]c2nc(-c3ccc(NS(=O)(=O)c4cc(F)ccc4F)c(Cl)c3)nc(O[C@@H]3CCNC[C@@H]3F)c12` [Compound 156, N-[2-chloro-4-(4-{[(3S,4R)-3-fluoropiperidin-4-yl]oxy}-3-methyl-1H-pyrazolo[3,4-d]pyrimidin-6-yl)phenyl]-2,5-difluorobenzenesulfonamide hydrochloride], in the series “in vivo [2]”, the half-life was 5.2 h, the bioavailability was 12% and the Cmax amounted to 548 ng/mL.
With `Cc1n[nH]c2nc(-c3ccc(NS(=O)(=O)c4cc(Cl)ccc4F)cc3)nc(NCCN3CCOCC3)c12` [Compound 26, 5-chloro-2-fluoro-N-(4-(3-methyl-4-((2-morpholinoethyl)amino)-1H-pyrazolo[3,4-d]pyrimidin-6-yl)phenyl)benzenesulfonamide], the solubility at 2 h was determined as 285 µM (≈ 156 µg/mL) in “physchem” (pH 5, fessif) and 5.1 µM (≈ 2.78 µg/mL) in the series “physchem” (pH 7.4, aqueous buffer).
As for `COc1ccc(F)c(S(=O)(=O)Nc2ccc(-c3nc(NCCN(C)CCO)c4c(C)n[nH]c4n3)cc2)c1` [Compound 77, 2-fluoro-N-{4-[4-({2-[(2-hydroxyethyl)(methyl)amino]ethyl}amino)-3-methyl-1H-pyrazolo[3,4-d]pyrimidin-6-yl]phenyl}-5-methoxybenzenesulfonamide], in “in vivo [1]”, the half-life was 2.2 h, the Cmax was determined as 16.8 ng/mL and the bioavailability turned out to be 0.75%.
Consider `Cc1n[nH]c2nc(-c3ccc(NS(=O)(=O)c4ccc(C#N)cc4)cc3)nc(OC3CCN(C(C)C)CC3)c12` [Compound 3, 4-cyano-N-(4-(4-((1-isopropylpiperidin-4-yl)oxy)-3-methyl-1H-pyrazolo[3,4-d]pyrimidin-6-yl)phenyl)benzenesulfonamide], for which the solubility at 2 h was determined as 325 µM (≈ 173 µg/mL) in “physchem” (pH 5, fessif) and 19 µM (≈ 10.1 µg/mL) in the series “physchem” (pH 7.4, aqueous buffer).
For `Cc1n[nH]c2nc(-c3ccc(NS(=O)(=O)c4cc(Cl)ccc4F)cc3)nc(NCCN(C)CCOC(=O)C(C)C)c12` [Compound 89, 2-{[2-({6-[4-(5-chloro-2-fluorobenzenesulfonamido)phenyl]-3-methyl-1H-pyrazolo[3,4-d]pyrimidin-4-yl}amino)ethyl](methyl)amino}ethyl 2-methylpropanoate trifluoroacetic acid], in the series “in vivo [1]”, the half-life is 1.2 h, the Cmax stood at 1740 ng/mL and the bioavailability is 11%.
In the case of `Cc1n[nH]c2nc(-c3ccc(NS(=O)(=O)c4cc(Cl)ccc4F)cc3)nc(O[C@@H]3CNCC3(F)F)c12` [Compound 49, 5-chloro-N-(4-{4-[(4,4-difluoropyrrolidin-3-yl)oxy]-3-methyl-1H-pyrazolo[3,4-d]pyrimidin-6-yl}phenyl)-2-fluorobenzenesulfonamide], the solubility at 2 h in the series “physchem” (pH 5, fessif) is 265 µM (≈ 143 µg/mL); in the series “physchem” (pH 7.4, aqueous buffer) it was 0.27 µM (≈ 0.146 µg/mL).
In the series “in vivo [1]”, `Cc1n[nH]c2nc(-c3ccc(NS(=O)(=O)c4cc(Cl)ccc4F)c(F)c3)nc(NCCN(C)C)c12` [Compound 38, 5-chloro-N-(4-(4-((2-(dimethylamino)ethyl)amino)-3-methyl-1H-pyrazolo[3,4-d]pyrimidin-6-yl)-2-fluorophenyl)-2-fluorobenzenesulfonamide] had a half-life of 2.2 h, a Cmax of 2340 ng/mL and a bioavailability of 41%. This compound had a solubility at 2 h in “physchem” (pH 5, fessif) of 298 µM (≈ 156 µg/mL). The same compound gave a solubility at 2 h in the series “physchem” (pH 7.4, aqueous buffer) of 15.9 µM (≈ 8.3 µg/mL).
